For one compound, Activity results are on record in ChEMBL document CHEMBL5523746, “Discovery of Novel Peptide Antagonists Targeting GPR55 for Liver Inflammation and Fibrosis” (2024).

Assay [1] relates to LX-2. The assay is described as follows: Anti-fibrotic activity in human LX2 cells assessed as reduction in COL1alpha expression by measuring relative inhibition rate measured after 24 hrs incubation by Western blot analysis relative to control. It counts as functional. Details: concentration or dose not given beside the values. (A western blot detects proteins with antibodies after separation by electrophoresis.)

The test system of assay [2] is Mus musculus. Nature of the assay: In vivo anti-fibrotic activity against CCl4-induced liver fibrosis C57BL/6J mouse model assessed as decrease in steatosis and inflammation at 150 to 300 microg/kg once daily for 3 weeks by H and E staining based assay. It counts as functional, organism-based. As to conditions: dose 150-300 µg/kg.
Assay [3] relates to Mus musculus. The assay is described as follows: In vivo anti-fibrotic activity against CCl4-induced liver fibrosis C57BL/6J mouse model assessed as decrease in inflammation at 150 to 300 microg/kg once daily for 3 weeks by IHC staining based assay. It is filed as functional, organism-based. As to conditions: dose 150-300 µg/kg.
Assay [4] has as its system Mus musculus. Nature of the assay: In vivo anti-fibrotic activity against CCl4-induced liver fibrosis C57BL/6J mouse model assessed as decrease in COL1alpha at 150 to 300 microg/kg once daily for 3 weeks by IHC staining based assay. It is filed as functional, organism-based. As to conditions: dose 150-300 µg/kg.
For assay [5], the system named is Mus musculus. The assay is described as follows: In vivo anti-fibrotic activity against CCl4-induced liver fibrosis C57BL/6J mouse model assessed as liver function by measuring decrease in hydroxyproline (HYP) at 150 to 300 microg/kg once daily for 3 weeks by Western blot analysis. As to conditions: dose 150-300 µg/kg. It is filed as functional, organism-based.

Assay [6] relates to Mus musculus. The assay is described as follows: In vivo anti-fibrotic activity against CCl4-induced liver fibrosis C57BL/6J mouse model assessed as reduction in […] mRNA level at 150 to 300 microg/kg once daily for 3 weeks by RT-qPCR analysis. It is filed as functional, organism-based. As to conditions: dose 150-300 µg/kg. On the technique in general: In qPCR the cycle at which signal appears reflects the starting amount.

Assay [7] has as its system Mus musculus. Nature of the assay: In vivo anti-fibrotic activity against CCl4-induced liver fibrosis C57BL/6J mouse model assessed as reduction in oxidative stress by measuring increase in superoxide dismutase at 150 to 300 microg/kg once daily for 3 weeks by enzyme activity assay. It is filed as functional, organism-based. As to conditions: dose 150-300 µg/kg.
Assay [8] relates to Mus musculus. The assay is described as follows: In vivo anti-fibrotic activity against CCl4-induced liver fibrosis C57BL/6J mouse model assessed as reduction in oxidative stress by measuring increase in catalase at 150 to 300 microg/kg once daily for 3 weeks by enzyme activity assay. It is filed as functional, organism-based. As to conditions: dose 150-300 µg/kg.
The test system of assay [9] is Mus musculus. The assay is described as follows: In vivo anti-fibrotic activity against CCl4-induced liver fibrosis C57BL/6J mouse model assessed as reduction in hepatocyte apoptosis at 300 microg/kg once daily for 3 weeks by TUNEL assay. It counts as functional, organism-based. As to conditions: dose 300.0 µg/kg.
In assay [10] the test system is Mus musculus. The assay is described as follows: In vivo anti-fibrotic activity against CCl4-induced liver fibrosis C57BL/6J mouse model assessed as reduction in hepatocyte apoptosis by measuring decrease in BAX protein level at 300 microg/kg once daily for 3 weeks by TUNEL assay. As to conditions: dose 300.0 µg/kg. It is filed as functional, organism-based.
The subject of assay [11] is Mus musculus. Nature of the assay: In vivo anti-fibrotic activity against methionine and choline-deficient (MCD) diet-induced liver fibrosis C57BL/6J mouse model assessed as reduction in inflammation by measuring decrease in CD68 inflammation marker at 150 to 300 microg/kg once daily for 3 weeks by IHC staining based assay. As to conditions: dose 150-300 µg/kg. It is filed as functional, organism-based.

Assay [12] relates to Mus musculus. The assay is described as follows: Induction of fatty acid beta-oxidation related gene expression in methionine and choline-deficient (MCD) diet-induced liver fibrosis C57BL/6J mouse model assessed as increase in ACOX mRNA level at 150 to 300 microg/kg once daily for 3 weeks by qPCR analysis. It counts as functional, organism-based. As to conditions: dose 150-300 µg/kg.

The test system of assay [13] is Mus musculus. Nature of the assay: Induction of fatty acid beta-oxidation related gene expression in methionine and choline-deficient (MCD) diet-induced liver fibrosis C57BL/6J mouse model assessed as increase in […] mRNA level at 150 to 300 microg/kg once daily for 3 weeks by qPCR analysis. It counts as functional, organism-based. As to conditions: dose 150-300 µg/kg.

Assay [14] concerns Mus musculus. The assay is described as follows: In vivo anti-fibrotic activity against methionine and choline-deficient (MCD) diet-induced liver fibrosis C57BL/6J mouse model assessed as reduction in ROS treated at 150 to 300 microg/kg once daily for 3 weeks by qPCR analysis. It is filed as functional, organism-based. As to conditions: dose 150-300 µg/kg.

Active and inactive are the calls of the source. The calls are words filed in the database; no cut-off is given here. Bridge positions count the residues as written; N and C are the ends. Peptide text beside a SMILES is read from it.

Turning to `CC[C@H](C)[C@@H]1NC(=O)[C@H]([C@@H](C)O)NC(=O)[C@@H]2CCCN2C(=O)[C@H](CO)NC(=O)[C@H](CC(N)=O)NC(=O)[C@H](CCCCN)NC(=O)[C@H](CCCCN)NC(=O)[C@@H](N)CSSC[C@@H](C(=O)O)NC1=O` (H-CKKNSPTIC-OH; disulfide 1-9), in [1], the Activity was determined as 40%. The outcome in [2], in assay [3], in [4], in assay [5], in [6] and in [7] was Active. Moreover, the result in assay [8], in assay [9], in [10], in assay [11], in assay [12] and in [13] was Active. Besides, the result in assay [14] was Active.
